Assay: xn = mol fraction of the nth substance listed
Settings: 100 kPa, Liquid; for speed of sound: Frequency=3 MHz, Sing-around technique in a fixed-path interferometer; for mass density: Vibrating tube method

COCCO [2-methoxyethan-1-ol] + CCCC[n+]1ccn(C)c1.O=S(=O)([N-]S(=O)(=O)C(F)(F)F)C(F)(F)F
Settings	mass density [kg/m3]	speed of sound [m/s]
298.15 K, x2 = 0	960.31	1341.8
298.15 K, x2 = 0.0966	1098.07	1301.4
298.15 K, x2 = 0.1943	1188.97	1279.7
298.15 K, x2 = 0.2887	1250.58	1266
298.15 K, x2 = 0.3979	1302.72	1253.5
298.15 K, x2 = 0.4792	1332.79	1246.7
298.15 K, x2 = 0.5943	1365.91	1239.9
298.15 K, x2 = 0.6753	1384.52	1236.6
298.15 K, x2 = 0.8101	1409.81	1232.5
298.15 K, x2 = 0.8849	1421.49	1230.2
303.15 K, x2 = 0	955.71	1324.1
303.15 K, x2 = 0.0966	1093.42	1285.2
303.15 K, x2 = 0.1943	1184.24	1264.7
303.15 K, x2 = 0.2887	1245.82	1251.7
303.15 K, x2 = 0.3979	1298.03	1240.4
303.15 K, x2 = 0.4792	1328.12	1234.1
303.15 K, x2 = 0.5943	1361.32	1227.6
303.15 K, x2 = 0.6753	1379.92	1224.9
303.15 K, x2 = 0.8101	1405.23	1221.2
303.15 K, x2 = 0.8849	1416.91	1219
308.15 K, x2 = 0	951.08	1307.3
308.15 K, x2 = 0.0966	1088.78	1269.8
308.15 K, x2 = 0.1943	1179.32	1250.1
308.15 K, x2 = 0.2887	1240.86	1237.7
308.15 K, x2 = 0.3979	1292.99	1227.8
308.15 K, x2 = 0.4792	1323.11	1221.7
308.15 K, x2 = 0.5943	1356.31	1216.1
308.15 K, x2 = 0.6753	1374.96	1213.3
308.15 K, x2 = 0.8101	1400.24	1209.9
308.15 K, x2 = 0.8849	1411.97	1208.2
313.15 K, x2 = 0	946.41	1292
313.15 K, x2 = 0.0966	1084.06	1255.3
313.15 K, x2 = 0.1943	1174.55	1236.4
313.15 K, x2 = 0.2887	1236.14	1224.7
313.15 K, x2 = 0.3979	1288.26	1215.7
313.15 K, x2 = 0.4792	1318.36	1209.7
313.15 K, x2 = 0.5943	1351.69	1204.9
313.15 K, x2 = 0.6753	1370.39	1202
313.15 K, x2 = 0.8101	1395.76	1198.9
313.15 K, x2 = 0.8849	1407.44	1197.3
318.15 K, x2 = 0	941.72	1274.2
318.15 K, x2 = 0.0966	1079.38	1238.8
318.15 K, x2 = 0.1943	1169.76	1221.3
318.15 K, x2 = 0.2887	1231.28	1210.4
318.15 K, x2 = 0.3979	1283.31	1202.3
318.15 K, x2 = 0.4792	1313.34	1197.1
318.15 K, x2 = 0.5943	1346.72	1192.7
318.15 K, x2 = 0.6753	1365.42	1190.3
318.15 K, x2 = 0.8101	1390.82	1187.7
318.15 K, x2 = 0.8849	1402.59	1186.3
323.15 K, x2 = 0	936.99	1259.4
323.15 K, x2 = 0.0966	1074.61	1224.6
323.15 K, x2 = 0.1943	1165.02	1207.8
323.15 K, x2 = 0.2887	1226.67	1197.6
323.15 K, x2 = 0.3979	1278.8	1190.1
323.15 K, x2 = 0.4792	1308.85	1185
323.15 K, x2 = 0.5943	1342.24	1181.1
323.15 K, x2 = 0.6753	1361.02	1179.1
323.15 K, x2 = 0.8101	1386.53	1176.9
323.15 K, x2 = 0.8849	1398.24	1175.9

Reference: the NIST ThermoML archive (doi:10.1021/acs.jced.7b00604)
